Values after ≈ are worked out from the molar mass of the structure shown. Where two headings read alike, the source gives them in different places.
Assays:
Assay in all cases: MIC determination
Format in all cases: cell-based
E. coli ATCC 25922 = settings: Escherichia coli
S. aureus ATCC 29213 = settings: Staphylococcus aureus
S. pyogenes ATCC 19615 = settings: Streptococcus pyogenes, ATCC19615; S. pyogenes ATCC 19615; read-out: MIC
S. pneumoniae ATCC 49619 = settings: Streptococcus pneumoniae, ATCC49619; S. pneumoniae ATCC 49619; read-out: MIC
E. faecalis ATCC 29212 = settings: Enterococcus faecalis
K. pneumoniae ATCC 10031 = settings: Klebsiella pneumoniae, ATCC10031
[1] = tested on: E. coli MP-74 LptD mutant; settings: Escherichia coli
[2] = tested on: S. aureus MP-549 msr(a) USA 300; settings: Staphylococcus aureus, USA300, S. aureus MP-549 msr(a) USA 300
E. coli MP-9 ΔTolC = settings: Escherichia coli
H. influenzae ATCC 49247 = settings: Haemophilus influenzae, ATCC49247
S. aureus BAA 977 iErmA = settings: Staphylococcus aureus, BAA977
[3] = ATCC25922, E. coli ATCC 25922, read-out: MIC
[4] = ATCC29213, S. aureus ATCC 29213, read-out: MIC
[5] = H. influenzae ATCC 49247, read-out: MIC
[6] = K. pneumoniae ATCC 10031, read-out: MIC

SMILES | MIC (E. coli ATCC 25922; [3]) [µg/mL] | MIC (S. aureus ATCC 29213; [4]) [µg/mL] | MIC (S. pyogenes ATCC 19615) [µg/mL] | MIC (S. pneumoniae ATCC 49619) [µg/mL] | MIC (E. faecalis ATCC 29212; ATCC29212, read-out: MIC) [µg/mL] | MIC (K. pneumoniae ATCC 10031) [µg/mL] | MIC (E. coli ATCC 25922; ATCC25922) [µg/mL] | MIC [1] [µg/mL] | MIC [2] [µg/mL] | MIC (E. coli MP-9 ΔTolC) [µg/mL] | MIC (E. faecalis ATCC 29212; ATCC29212) [µg/mL] | MIC (H. influenzae ATCC 49247) [µg/mL] | MIC (S. aureus BAA 977 iErmA) [µg/mL] | MIC (H. influenzae ATCC 49247; [5]) [µg/mL] | MIC (K. pneumoniae ATCC 10031; [6]) [µg/mL] | MIC (S. aureus ATCC 29213; ATCC29213) [µg/mL]
CSC1O[C@H]([C@H](NC(=O)[C@@H]2[C@@H]3OCC=CC[C@H]3CN2C2CC2)[C@H](C)Sc2ccc(-c3cccnc3)cc2)C(O)C(O)[C@H]1O (some centres unmarked) [FSA-214009a] | > 64 | 64 (≈ 102 µM) | 4 (≈ 6.37 µM) | 4 (≈ 6.37 µM) | > 64 |  |  |  |  |  |  |  |  |  |  | 
CCOC(=O)CCN1C[C@@H]2CC=CCO[C@H]2[C@H]1C(=O)N[C@H]([C@H](C)Sc1ccc(-c2cccnc2)cc1)[C@H]1OC(SC)[C@H](O)[C@H](O)C1O (some centres unmarked) [FSA-214009b] | > 64 | > 64 | 8 (≈ 11.6 µM) | 32 (≈ 46.5 µM) | > 64 |  |  |  |  |  |  |  |  |  |  | 
CSC1O[C@H]([C@H](NC(=O)[C@H]2NC[C@@H]3CC=CCO[C@@H]32)[C@H](C)Cl)C(O)[C@@H](O)[C@H]1O (some centres unmarked) [FSA-504059] |  | 2 (≈ 4.58 µM) | 0.12 (≈ 0.275 µM) | 0.25 (≈ 0.572 µM) |  | > 64 | > 64 | > 64 | 2 (≈ 4.58 µM) | > 64 | 32 (≈ 73.2 µM) | > 64 |  |  |  | 
CSC1O[C@H]([C@H](NC(=O)[C@H]2NC[C@@H]3CCCCO[C@@H]32)[C@H](C)Cl)C(O)[C@@H](O)[C@H]1O (some centres unmarked) [FSA-504062] |  | 2 (≈ 4.56 µM) | 0.12 (≈ 0.273 µM) | 0.25 (≈ 0.57 µM) | 32 (≈ 72.9 µM) | > 64 | > 64 | > 64 | 1 (≈ 2.28 µM) | > 64 |  | > 64 |  |  |  | 
CSC1O[C@H]([C@H](NC(=O)[C@H]2NC[C@@H]3CC(c4ccc(-c5ccccc5)cc4)=CCO[C@H]32)[C@H](C)Cl)C(O)[C@@H](O)[C@H]1O (some centres unmarked) [FSA-510001] |  | 2 (≈ 3.39 µM) | 2 (≈ 3.39 µM) | 4 (≈ 6.79 µM) |  | > 64 | > 64 | 8 (≈ 13.6 µM) |  | > 64 | 8 (≈ 13.6 µM) |  | 2 (≈ 3.39 µM) | 16 (≈ 27.2 µM) |  | 
CSC1O[C@H]([C@H](NC(=O)[C@H]2NC[C@@H]3C=C(C#Cc4ccccc4)CCO[C@@H]23)[C@H](C)Cl)C(O)[C@@H](O)[C@H]1O (some centres unmarked) [FSA-510002] |  | 0.5 (≈ 0.931 µM) | 0.25 (≈ 0.465 µM) | 0.25 (≈ 0.465 µM) | 2 (≈ 3.72 µM) |  | > 64 | 32 (≈ 59.6 µM) |  | > 64 |  | 32 (≈ 59.6 µM) | 0.25 (≈ 0.465 µM) |  | 64 (≈ 119 µM) | 
CSC1O[C@H]([C@H](NC(=O)[C@H]2NC[C@@H]3C=C(C#Cc4cccc(F)c4)CCO[C@@H]23)[C@H](C)Cl)C(O)[C@@H](O)[C@H]1O (some centres unmarked) [FSA-510003] |  | 0.5 (≈ 0.901 µM) | 0.25 (≈ 0.45 µM) | 0.25 (≈ 0.45 µM) | 1 (≈ 1.8 µM) |  | > 64 | 32 (≈ 57.7 µM) |  | > 64 |  |  | 0.25 (≈ 0.45 µM) | 16 (≈ 28.8 µM) | 16 (≈ 28.8 µM) | 
CSC1O[C@H]([C@H](NC(=O)[C@H]2NC[C@@H]3CC(c4cccc5cnccc45)=CCO[C@H]32)[C@H](C)Cl)C(O)[C@@H](O)[C@H]1O (some centres unmarked) [FSA-510006] |  | 8 (≈ 14.2 µM) | 0.5 (≈ 0.886 µM) | 1 (≈ 1.77 µM) | 16 (≈ 28.4 µM) | > 64 | > 64 | 64 (≈ 113 µM) |  | > 64 |  | > 64 | 16 (≈ 28.4 µM) |  |  | 
CSC1O[C@H]([C@H](NC(=O)[C@H]2NC[C@@H]3CC(NC4CC4)CCO[C@H]32)[C@H](C)Cl)C(O)[C@@H](O)[C@H]1O (some centres unmarked) [FSA-510011] |  | 32 (≈ 64.8 µM) | 2 (≈ 4.05 µM) | 8 (≈ 16.2 µM) |  | > 64 | > 64 | > 64 |  | > 64 | > 64 | > 64 | 32 (≈ 64.8 µM) |  |  | 
CSC1O[C@H]([C@H](NC(=O)[C@H]2NC[C@@H]3CC(NCc4ccccc4F)CCO[C@H]32)[C@H](C)Cl)C(O)C(O)[C@H]1O (some centres unmarked) [FSA-510072] |  | 64 (≈ 114 µM) | 8 (≈ 14.2 µM) | 30 (≈ 53.4 µM) |  | > 64 | > 64 | > 64 | 64 (≈ 114 µM) | > 64 | > 64 | > 64 |  |  |  | 
CSC1O[C@H]([C@H](NC(=O)[C@H]2NC[C@@H]3CC(NCc4cccc(F)c4)CCO[C@H]32)[C@H](C)Cl)C(O)[C@@H](O)[C@H]1O (some centres unmarked) [FSA-510073] |  | 16 (≈ 28.5 µM) | 2 (≈ 3.56 µM) | 8 (≈ 14.2 µM) |  | > 64 | > 64 | > 64 | 16 (≈ 28.5 µM) | > 64 | > 64 | > 64 |  |  |  | 
CSC1O[C@H]([C@H](NC(=O)[C@H]2NC[C@@H]3CC(NCc4ccc(F)cc4)CCO[C@H]32)[C@H](C)Cl)C(O)[C@@H](O)[C@H]1O (some centres unmarked) [FSA-510074] |  | 64 (≈ 114 µM) | 8 (≈ 14.2 µM) | 32 (≈ 56.9 µM) |  | > 64 | > 64 | > 64 | 64 (≈ 114 µM) | > 64 | > 64 | > 64 |  |  |  | 
CSC1O[C@H]([C@H](NC(=O)[C@H]2NC[C@@H]3CC(c4ccc(C)cc4)=CCO[C@H]32)[C@H](C)Cl)C(O)[C@@H](O)[C@H]1O (some centres unmarked) [FSA-511019] | > 64 |  | 0.125 (≈ 0.237 µM) | 0.25 (≈ 0.474 µM) | 4 (≈ 7.59 µM) |  |  | 64 (≈ 121 µM) | 0.5 (≈ 0.949 µM) | 32 (≈ 60.7 µM) |  | 64 (≈ 121 µM) |  |  | > 64 | 0.5 (≈ 0.949 µM)
COc1ccc(C2=CCO[C@@H]3[C@H](CN[C@@H]3C(=O)N[C@H]([C@H](C)Cl)[C@H]3OC(SC)[C@H](O)[C@H](O)C3O)C2)cc1 (some centres unmarked) [FSA-511020] | > 64 | 0.5 (≈ 0.921 µM) | ≤ 0.06 | ≤ 0.06 | 4 (≈ 7.37 µM) |  |  | 64 (≈ 118 µM) | 1 (≈ 1.84 µM) | 64 (≈ 118 µM) |  | 64 (≈ 118 µM) |  |  | > 64 | 
CSC1O[C@H]([C@H](NC(=O)[C@H]2NC[C@@H]3CC(c4ccc(C#N)cc4)=CCO[C@H]32)[C@H](C)Cl)C(O)[C@@H](O)[C@H]1O (some centres unmarked) [FSA-511033] | > 64 | 0.5 (≈ 0.929 µM) | ≤ 0.06 | ≤ 0.06 | 2 (≈ 3.72 µM) | 64 (≈ 119 µM) |  | 64 (≈ 119 µM) | 1 (≈ 1.86 µM) | 32 (≈ 59.5 µM) |  | 64 (≈ 119 µM) |  |  |  | 
CSC1O[C@H]([C@H](NC(=O)[C@H]2NC[C@@H]3C[C@@H](C4CCNCC4)CCO[C@H]32)[C@H](C)Cl)C(O)[C@@H](O)[C@H]1O (some centres unmarked) [FSA-512011] |  | 8 (≈ 15.3 µM) | 4 (≈ 7.66 µM) | 1 (≈ 1.92 µM) | 64 (≈ 123 µM) |  | > 256 | > 256 | 8 (≈ 15.3 µM) | > 256 |  | > 256 |  |  |  | 
CSC1O[C@H]([C@H](NC(=O)[C@H]2NC[C@@H]3C[C@@H](C4CCN(C)CC4)CCO[C@H]32)[C@H](C)Cl)C(O)[C@@H](O)[C@H]1O (some centres unmarked) [FSA-512012] |  | 8 (≈ 14.9 µM) | 4 (≈ 7.46 µM) | 1 (≈ 1.87 µM) | 64 (≈ 119 µM) |  | > 256 | > 256 | 8 (≈ 14.9 µM) | > 256 |  | > 256 |  |  |  | 
CSC1O[C@H]([C@H](NC(=O)[C@H]2NC[C@@H]3C=C(c4ccc(C)cc4)CCO[C@@H]23)[C@H](C)Cl)C(O)[C@@H](O)[C@H]1O (some centres unmarked) [FSA-512075] | > 256 | 0.5 (≈ 0.949 µM) | 0.25 (≈ 0.474 µM) | 0.25 (≈ 0.474 µM) | 2 (≈ 3.79 µM) |  |  | 64 (≈ 121 µM) | 0.25 (≈ 0.474 µM) | 32 (≈ 60.7 µM) |  | 64 (≈ 121 µM) |  |  |  | 
COc1ccc(C2=C[C@H]3CN[C@H](C(=O)N[C@H]([C@H](C)Cl)[C@H]4OC(SC)[C@H](O)[C@H](O)C4O)[C@@H]3OCC2)cc1 (some centres unmarked) [FSA-512076] | > 256 | 0.25 (≈ 0.46 µM) | ≤ 0.12 | ≤ 0.12 | 2 (≈ 3.68 µM) |  |  | 64 (≈ 118 µM) | 0.25 (≈ 0.46 µM) | 64 (≈ 118 µM) |  |  |  | 128 (≈ 236 µM) |  | 
CSC1O[C@H]([C@H](NC(=O)[C@H]2NC[C@@H]3C=C(c4ccc(C#N)cc4)CCO[C@@H]23)[C@H](C)Cl)C(O)[C@@H](O)[C@H]1O (some centres unmarked) [FSA-512077] | > 256 | 0.5 (≈ 0.929 µM) | ≤ 0.12 | ≤ 0.12 | 1 (≈ 1.86 µM) |  |  | 64 (≈ 119 µM) | 0.25 (≈ 0.465 µM) | 16 (≈ 29.7 µM) |  |  |  | 128 (≈ 238 µM) |  | 
CSC1O[C@H]([C@H](NC(=O)[C@H]2NC[C@@H]3C[C@@H](c4ccc(C)cc4)CCO[C@H]32)[C@H](C)Cl)C(O)[C@@H](O)[C@H]1O (some centres unmarked) [FSA-512079b] | > 128 |  | ≤ 0.12 |  | 1 (≈ 1.89 µM) | 16 (≈ 30.2 µM) |  | 16 (≈ 30.2 µM) | 0.5 (≈ 0.945 µM) | 8 (≈ 15.1 µM) |  | 16 (≈ 30.2 µM) |  |  |  | 0.5 (≈ 0.945 µM)
CSC1O[C@H]([C@H](NC(=O)[C@H]2NC[C@@H]3C[C@H](c4ccc(C)cc4)CCO[C@H]32)[C@H](C)Cl)C(O)[C@@H](O)[C@H]1O (some centres unmarked) [FSA-512079c] | > 128 |  | ≤ 0.12 |  | 2 (≈ 3.78 µM) | 16 (≈ 30.2 µM) |  | 16 (≈ 30.2 µM) | 0.5 (≈ 0.945 µM) | 8 (≈ 15.1 µM) |  | 16 (≈ 30.2 µM) |  |  |  | 0.5 (≈ 0.945 µM)

— US11767341B2, “Lincosamide antibiotics and uses thereof” (President and Fellows of Harvard College, priority 2017, dated 2023)
